In ChEMBL document CHEMBL3745613, “Fragment-assisted hit investigation involving integrated HTS and fragment screening: Application to the identification of phosphodiesterase 10A (PDE10A) inhibitors” (Bioorg Med Chem Lett, 2016):
≈ marks a conversion by molar mass, not a printed value.

Assays:
[1] = Equilibrium solubility of the compound in phosphate buffer at pH 7.4; type: physicochemical
[2] = target: T1, cAMP and cAMP-inhibited cGMP 3',5'-cyclic phosphodiesterase 10A (Homo sapiens, UniProt Q9Y233); test: Inhibition of human recombinant PDE10A using cAMP as substrate preincubated for 20 mins followed by substrate addition measured after 2 hrs by FRET assay
[3] = target: T1, cAMP and cAMP-inhibited cGMP 3',5'-cyclic phosphodiesterase 10A; test: Inhibition of human recombinant PDE10A using cAMP as substrate at 30 uM preincubated for 20 mins followed by substrate addition measured after 2 hrs by FRET assay
[4] = target: T1, cAMP and cAMP-inhibited cGMP 3',5'-cyclic phosphodiesterase 10A; test: Binding affinity to human recombinant PDE10A after 15 mins by surface plasmon resonance assay
[5] = target: cGMP-dependent 3',5'-cyclic phosphodiesterase (Homo sapiens, UniProt O00408); test: Inhibition of human recombinant PDE2A using cAMP as substrate preincubated for 20 mins followed by substrate addition measured after 2 hrs by FRET assay
cGMP-dependent 3',5'-cyclic phosphodiesterase, sequence (O00408 whole entry): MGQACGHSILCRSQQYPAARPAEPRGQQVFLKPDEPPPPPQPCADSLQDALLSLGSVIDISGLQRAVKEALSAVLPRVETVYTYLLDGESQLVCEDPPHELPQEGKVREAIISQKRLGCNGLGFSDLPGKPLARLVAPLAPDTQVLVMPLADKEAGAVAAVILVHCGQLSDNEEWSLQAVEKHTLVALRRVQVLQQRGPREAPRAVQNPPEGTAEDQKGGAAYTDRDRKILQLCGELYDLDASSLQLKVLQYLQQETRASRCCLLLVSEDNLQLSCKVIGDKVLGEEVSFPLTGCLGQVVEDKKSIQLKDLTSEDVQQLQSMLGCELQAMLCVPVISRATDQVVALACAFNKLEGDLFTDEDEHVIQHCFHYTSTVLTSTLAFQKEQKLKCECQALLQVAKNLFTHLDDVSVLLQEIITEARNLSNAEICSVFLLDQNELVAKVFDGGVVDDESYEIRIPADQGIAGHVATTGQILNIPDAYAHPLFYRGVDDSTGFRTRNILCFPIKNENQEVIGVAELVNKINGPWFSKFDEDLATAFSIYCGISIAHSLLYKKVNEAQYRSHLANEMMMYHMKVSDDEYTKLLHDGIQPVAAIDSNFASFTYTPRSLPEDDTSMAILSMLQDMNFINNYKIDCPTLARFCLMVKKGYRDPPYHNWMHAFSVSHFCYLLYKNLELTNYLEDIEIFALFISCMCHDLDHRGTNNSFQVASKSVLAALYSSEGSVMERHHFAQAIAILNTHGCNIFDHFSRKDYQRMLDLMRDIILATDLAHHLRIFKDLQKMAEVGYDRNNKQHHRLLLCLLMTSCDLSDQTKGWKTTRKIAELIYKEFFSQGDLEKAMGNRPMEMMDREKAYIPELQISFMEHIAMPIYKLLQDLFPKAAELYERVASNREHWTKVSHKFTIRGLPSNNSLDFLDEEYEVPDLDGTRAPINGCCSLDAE

T1 sequence (Q9Y233 whole entry): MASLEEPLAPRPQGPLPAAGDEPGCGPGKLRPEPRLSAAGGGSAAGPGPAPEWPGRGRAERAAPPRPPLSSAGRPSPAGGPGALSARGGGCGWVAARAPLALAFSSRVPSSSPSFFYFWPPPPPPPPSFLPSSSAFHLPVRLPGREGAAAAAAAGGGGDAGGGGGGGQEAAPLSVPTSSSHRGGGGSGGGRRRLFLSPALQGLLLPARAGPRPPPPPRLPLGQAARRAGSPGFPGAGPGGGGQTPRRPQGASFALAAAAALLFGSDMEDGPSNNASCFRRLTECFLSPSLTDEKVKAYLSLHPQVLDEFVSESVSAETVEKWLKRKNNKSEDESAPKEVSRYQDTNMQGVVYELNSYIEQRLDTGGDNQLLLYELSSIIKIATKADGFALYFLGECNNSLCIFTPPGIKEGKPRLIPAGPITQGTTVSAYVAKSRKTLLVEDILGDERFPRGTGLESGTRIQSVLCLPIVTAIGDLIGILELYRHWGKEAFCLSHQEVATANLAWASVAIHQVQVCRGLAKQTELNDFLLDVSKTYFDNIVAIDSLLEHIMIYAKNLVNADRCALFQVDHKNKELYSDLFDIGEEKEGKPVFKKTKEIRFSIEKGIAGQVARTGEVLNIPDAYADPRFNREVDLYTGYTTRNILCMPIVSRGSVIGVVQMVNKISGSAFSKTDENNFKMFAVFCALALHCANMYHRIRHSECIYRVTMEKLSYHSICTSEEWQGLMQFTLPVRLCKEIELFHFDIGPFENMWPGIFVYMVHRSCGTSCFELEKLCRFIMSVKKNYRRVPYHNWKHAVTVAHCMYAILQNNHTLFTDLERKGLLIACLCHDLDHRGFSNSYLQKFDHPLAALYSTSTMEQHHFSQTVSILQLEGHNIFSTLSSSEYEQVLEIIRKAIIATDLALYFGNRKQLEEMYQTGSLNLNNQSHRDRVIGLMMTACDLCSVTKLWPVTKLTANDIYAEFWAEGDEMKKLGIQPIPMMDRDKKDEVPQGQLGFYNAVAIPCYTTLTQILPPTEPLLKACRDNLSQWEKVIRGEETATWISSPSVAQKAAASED

Structure (SMILES) | solubility thermodynamic [1] | IC50 [2] | inhibition [3] | IC50 [4] | IC50 [5]
Cc1cccc(C(=O)Nc2cc(-c3nc4ccccc4[nH]3)[nH]n2)c1Cl | < 1 µM | 280 nM | – | – | –
Cc1csc(-c2ccccn2)n1 | – | – | – | 324000 nM | –
Cc1cc(-c2ccco2)[nH]n1 | – | – | – | 851000 nM | –
Cc1c(Cl)cccc1C(=O)Nc1cc(-c2nc3ccccc3[nH]2)[nH]n1 | < 1 µM | 100 nM | – | – | > 100000 nM
Cc1nocc1C(=O)Nc1cc(-c2nc3ccccc3[nH]2)[nH]n1 | 2 µM (≈ 0.617 µg/mL) | 3800 nM | – | – | –

Results, then the molecule that gave them:

solubility thermodynamic [1] | IC50 [2] | inhibition [3] | IC50 [4] | IC50 [5] | Structure (SMILES)
13 µM (≈ 5.05 µg/mL) | 490 nM | – | – | – | N#Cc1cccc(C(=O)Nc2ncc(-c3nc4ccccc4n3CCN)s2)c1
– | > 30000 nM | 23% | – | – | CS(=O)(=O)c1cccc(C(=O)Nc2cc(-c3nc4ccccc4[nH]3)[nH]n2)c1
< 1 µM | 120 nM | – | – | – | Cn1c(-c2cnc(NC(=O)c3cccc(C#N)c3)s2)nc2ccccc21
< 1 µM | 16 nM | – | – | > 100000 nM | Cc1c(Cl)cccc1C(=O)Nc1ncc(-c2nc3ccccc3n2C)s1
1 µM (≈ 0.345 µg/mL) | 110 nM | – | – | > 100000 nM | N#Cc1cccc(C(=O)Nc2ncc(-c3nc4ccccc4[nH]3)s2)c1
